In ChEMBL document CHEMBL1122893, “Bile acids with cyclopropane-containing side chain. 2. Synthesis and properties of 3 alpha,7 beta-dihydroxy-22,23-methylene-5 beta-cholan-24-oic acid (2-sulfoethyl)amide” (J Med Chem, 1985):

Assay: Evaluated for critical micellular concentration (CMC) by dye solubilization method

CMC [mM] | SMILES
18 | CC(CCC(=O)NCCS(=O)(=O)O)C1CC[C@H]2[C@@H]3[C@@H](O)CC4C[C@H](O)CCC4(C)[C@H]3CCC12C (stereo partly drawn)
14.5 | CC(C1CC1C(=O)NCCS(=O)(=O)O)C1CC[C@H]2[C@@H]3[C@@H](O)CC4C[C@H](O)CCC4(C)[C@H]3CCC12C (stereo partly drawn)

SMILES | CMC [mM]
CC(C1CC1C(=O)O)C1CC[C@H]2[C@@H]3[C@@H](O)CC4C[C@H](O)CCC4(C)[C@H]3CCC12C (stereo partly drawn) | 15.5
